Residues, ends and D or L forms follow the SMILES beside them. *: point of attachment. Cbz = O=C(OCc1ccccc1)* Where only a bound is given, the exact number is not on record here.

Results on five compounds are retold here after patent US20140271926A1, “METHODS OF USE OF GLUTAMINE SYNTHETASE INHIBITORS” (CALIFORNIA INSTITUTE OF TECHNOLOGY, priority 2013, published 2014).

Series [1] has as its system glutamine synthetase (GS). Put plainly: Western blot of endogenous GS level in MM.1S cells. In kind it is cell-based, human. The settings on record: for steady-state level of GS: MM.1S cells, 2 mM glutamine, FIG. 5. The procedure:
The consequences of IMiD-enhanced ubiquitylation of GS on endogenous GS levels and stability in MM.1S cells were evaluated. […] The IMiD-triggered decline in GS protein was not due to a reduction in the mRNA level of GS (FIGS. 5 and 6). If IMiDs were added immediately after changing the growth medium, the suppression of GS was more profound, with a maximal effect seen at 0.1 μM pomalidomide (4-amino-thalidomide) (FIG. 7). […] To determine if IMiDs were affecting the stability of GS, cycloheximide chase experiments were performed. As known in the art, GS is an unstable protein (FIG. 9). […] The lenalidomide-induced downregulation of GS was blocked by the proteasome inhibitor MG132 (FIG. 11). Additionally, the lenalidomide-induced downregulation of GS was blunted upon depletion of CRBN by shRNA (FIG. 12).
Western blot analysis. […] After washing twice with ice-cold PBS, the cells were lysed in RIPA buffer (50 mM Tris-HCl, 150 mM NaCl, 1% Triton X-100, 1% Sodium deoxycholate, 0.1% SDS, [pH 7.5]) supplemented with complete protease inhibitor (Roche). Whole-cell protein extracts were prepared and quantified by the Bradford method (Bio-Rad, Hercules, Calif.). Equal amounts of protein (20-80 μg/lane) were electrophoretically separated on SDS-PAGE and transferred to a PVDF membrane. The membranes were blotted with indicated antibodies. Anti-rabbit or anti-mouse antibodies conjugated to horseradish peroxidase (Vector Labs) were used as secondary antibodies, and the signal was detected using a Super Signal West Pico Substrate kit (Fisher Scientific).

The subject of a further series is endogenous GS. The series is described as follows: TUBE2 pull-down of ubiquitin conjugates, HEK293T cells. The settings on record: 3 hours, FIG. 4; for GS ubiquitin conjugates: lenalidomide 30 μM or MG132 10 μM. In kind it is cell-based, human. As to the method:
TUBE (Tandem Ubiquitin Binding Entities) Pull-down. […] The cells were lysed in immunoprecipitation buffer (10 mM Tris [pH 7.5], 150 mM NaCl, 1% Triton X-100) containing a protease inhibitor cocktail, MG132 and 10 mM N-ethylmaleimide (NEM, Sigma). Whole-cell protein extracts were incubated with 20 μl of TUBE2 agarose beads (Boston Biochem) for 2-4 hours with rotation at 4° C. Beads were washed 3-5 times with lysis buffer, and bound proteins were eluted in SDS sample buffer and subjected to Western blot analysis.

Another series has as its system FlagGS. The series is described as follows: In vivo ubiquitylation assay of FlagGS in HEK293T cells. In kind it is cell-based, human. The settings on record: MG132 10 μM 3 hours, FIG. 13A. From the text: As mentioned above, GS is moderately unstable even in the absence of IMiDs. Specifically, seven lysine residues of GS are modified with ubiquitin in proteasome-inhibited cells, and modification of five of these sites is reduced upon inhibition of CRL activity with the NEDD8 conjugation inhibitor MLN4924. (Kim et al., 2011, Mol Cell., 44:325 and Emanuele et al., 2011, Cell, 147:459, the entire contents of both of which are herein incorporated by reference.) As such, the idea that the constitutive ubiquitylation and degradation of GS may be dependent on CRL4^CRBN was tested. In co-transfection assays, ^HAubiquitin was incorporated into ^FlagGS as determined by immunoprecipitation of ^FlagGS followed by immunoblotting with anti-HA (FIG. 13A). Additionally, ubiquitin-modified ^FlagGS accumulated in cells in which the proteasome was inhibited with the proteasome inhibitor MG132, but was almost entirely absent upon depletion of endogenous CRBN (depletion of CRBN was confirmed by immunoblot; FIG. 13B). […]
In vivo ubiquitylation assay. […] IP washing steps were performed using IP lysis buffer supplemented with 0.5 M NaCl Immunoprecipitated proteins were resolved by SDS/PAGE and analyzed by immunoblotting.

The next series deals with GS. The conditions noted are these: five of seven ubiquitin-modified lysine sites; proteasome-inhibited cells; cited from earlier work.
For series [2] the following is noted: clinical; cited from earlier work.
The test system of a further series is MM.1S cells. Put plainly: Immunoblot of apoptosis biomarkers (cleaved caspase-3, PARP) in MM.1S cells. The settings on record: low concentrations of pomalidomide; 0.5 mM glutamine 72 hours; FIG. 26. In kind it is cell-based, human. The procedure: Since the physiological concentration of glutamine in human plasma is 0.5 mM (not the 2 mM that is typically used in cell cultures), the impact of GS depletion on cells grown in 0.5 mM glutamine was evaluated. Cells transduced with GS shRNA-3 in 2 mM glutamine for 7 days and then the cells were shifted to 0.5 mM glutamine.
If IMiDs modulate the level of multiple proteins that are critical for proliferation of myeloma cells, then restoring any one protein would not be expected to allow proliferation in the presence of IMiDs. By contrast, it was reasoned that if degradation of GS contributes to the anti-myeloma effect of IMiDs, that reduction of GS levels by shRNA knockdown would enhance the effect of IMiDs at sub-saturating concentrations, resulting in enhanced efficacy. […]
Western blot analysis. […] Whole-cell protein extracts were prepared and quantified by the Bradford method (Bio-Rad, Hercules, Calif.). […] Anti-rabbit or anti-mouse antibodies conjugated to horseradish peroxidase (Vector Labs) were used as secondary antibodies, and the signal was detected using a Super Signal West Pico Substrate kit (Fisher Scientific).
In general terms: A western blot detects proteins with antibodies after separation by electrophoresis.

On to `Nc1ccc2c(c1)C(=O)N(C1CCC(=O)NC1=O)C2=O` (stereo not shown) [5-amino-thalidomide], for which the “effect on GS protein levels” value in series [1] (MM.1S, FIG. 7) was “no effect”.

Consider `CC(C)C[C@@H](C=O)NC(=O)[C@H](CC(C)C)NC(=O)[C@H](CC(C)C)NC(=O)OCc1ccccc1` [MG132] (Cbz-Leu-Leu-Leu-aldehyde), for which the GS ubiquitin conjugates entry with endogenous GS was “increase”. Besides, the “lenalidomide-induced downregulation of GS in presence of proteasome inhibitor” value in series [1] (MM.1S, 0.5 μM MG132, 100 μM lenalidomide, FIG. 11) is “blocked”. For the same compound, the “ubiquitin-modified FlagGS” value in the series on FlagGS was “accumulated”.

As to `NS(=O)(=O)OC[C@@H]1C[C@@H](n2ccc3c(N[C@H]4CCc5ccccc54)ncnc32)C[C@@H]1O` [MLN4924], the “ubiquitin modification of GS lysine residues” value in the series on GS is recorded as “reduced”.

Usually Cmax stands for the peak of the concentration-time curve. As to `Nc1cccc2c1CN(C1CCC(=O)NC1=O)C2=O` (stereo not shown) [lenalidomide], the “total cellular pool of ubiquitin conjugates” value in the series on endogenous GS (30 μM) is listed as “essentially no effect”. In addition, the GS ubiquitin conjugates entry with endogenous GS was “increase”. In series [1] (24 hours), the “steady-state level of GS” value is “marked, dose-dependent reduction”. Moreover, the “time to substantial reduction of GS” value in series [1] (MM.1S, 100 μM lenalidomide, FIG. 8) is at most 4 h. Moreover, the “lenalidomide-induced downregulation of GS upon depletion of CRBN by shRNA” value in series [1] (MM.1S, 24 hours, FIG. 12) was “blunted”. The Cmax in series [2] was about 1500 nM.

With `Nc1cccc2c1C(=O)N(C1CCC(=O)NC1=O)C2=O` (stereo not shown) [pomalidomide, 4-amino-thalidomide], the “steady-state level of GS” value in series [1] (24 hours) was “marked, dose-dependent reduction”. Also, in series [1] (MM.1S, IMiDs added immediately after changing the growth medium, FIG. 7), the “concentration giving maximal suppression of GS” value was 0.1 µM. Also, in the series on MM.1S cells, the “PARP cleavage in GS-depleted cells” value is “further accentuated” and the “PARP cleavage in non-depleted cells” value is “no effect”. Moreover, in series [2], the Cmax is about 275 nM.
